Reference: patent publication US20100222421A1, “Usage of Baicalein in the Preparation of a Pharmaceutical Composition for the Treatment of Traumatic Brain Injury” (National Defense Medical Center, priority 2009, published 2010)

Legend:
[1] = system: TNF-α protein; experiment: ELISA, TNF-α protein after CCI injury; type: in vivo, rat; settings: single-dose 30 mg kg^-1 i.p.; ipsilateral cortex, 1 day post-injury; P<0.05
Protocol: A previously described CCI injury procedure was utilized (Chen et al., 2003). Male Sprague-Dawley rats, which have body weight of 250-300 g, were anaesthetized with sodium pentobarbital (i.p.; 50 mgkg^−1; Rhone Merieux, Harlow, UK) and placed in a stereotaxic frame. A 5-mm craniotomy was performed over the left parietal cortex, centered on the coronal suture and 3 mm lateral to the sagittal suture. Considerable care was taken to avoid injury to the underlying dura. Injury was made using a pneumatic piston with a rounded metal tip (2.5 mm diameter) that was angled 22.5° C. to the vertical so that the tip was perpendicular with the brain surface at the centre of the craniotomy. A velocity of 4 ms^−1 and a deformation depth 2 mm below the dura were used. […] Body temperature was monitored throughout the surgery by a rectal probe; temperature was maintained at 37.0±0.5° C. using a heated pad. […]
Single-dose baicalein (30 mg kg^−1) or a corresponding volume of vehicle was administered i.p. immediately following injury. […] Testing after injury was as follows: (1) real-time quantitative RT-PCR analysis for TNF-α, IL-1β and IL-6 mRNA expression at 6 h post-injury (n=7 for each group); (2) FluoroJade B (FJB) staining, TNF-α, IL-1β and IL-6 immunohistochemistry, as well as ELISA at 24 h post-injury to assess degenerative neurons and to determine cytokine expression (n=7 for each group). […]

[2] = system: rats with controlled cortical impact (CCI) injury; experiment: Modified neurological severity score (mNSS) after CCI injury; type: in vivo, rat; settings: P<0.05
Protocol: A previously described CCI injury procedure was utilized (Chen et al., 2003). Male Sprague-Dawley rats, which have body weight of 250-300 g, were anaesthetized with sodium pentobarbital (i.p.; 50 mgkg^−1; Rhone Merieux, Harlow, UK) and placed in a stereotaxic frame. A 5-mm craniotomy was performed over the left parietal cortex, centered on the coronal suture and 3 mm lateral to the sagittal suture. Considerable care was taken to avoid injury to the underlying dura. Injury was made using a pneumatic piston with a rounded metal tip (2.5 mm diameter) that was angled 22.5° C. to the vertical so that the tip was perpendicular with the brain surface at the centre of the craniotomy. A velocity of 4 ms^−1 and a deformation depth 2 mm below the dura were used. The bone flap was immediately replaced and sealed, and the scalp was closed with sutures. Body temperature was monitored throughout the surgery by a rectal probe; temperature was maintained at 37.0±0.5° C. using a heated pad. Rats were placed in a heated cage to maintain body temperature, while recovering from anaesthesia. Baicalein (30 mg kg^−1) dissolved in 10% dimethyl sulphoxide (0.25-0.3 mL) or a corresponding volume of vehicle (10% dimethyl sulphoxide) was administered i.p. immediately following injury or daily for 4 days (immediately, 25, 49 and 73 h) after injury. Behaviour testing using the rotarod, tactile adhesive removal, mNSS and beam walk tests was performed at […] as well as 4, 7, 14, 21 and 28 days post-injury. At 14 and 28 days, the animals were killed, perfused intravascularly and their brains were processed with cresyl violet staining to assess contusion volume (n=8 for each group). […] Behaviour testing was performed before CCI and at […] after CCI by an observer who was unaware of the experimental treatments. The battery of tests consisted of the rotarod motor test, tactile adhesive-removal somatosensory test, mNSS and beam walk test. […] One point was scored for the inability to perform the test or for the lack of a tested reflex; thus, the higher the score, the more severe the injury. […]

Compound: O=c1cc(-c2ccccc2)oc2cc(O)c(O)c(O)c12 [baicalein]
- TNF-α protein concentration, % of concentration in vehicle-treated rats [1]: 54%
- mNSS neurological deficit, multiple-dose versus single-dose treatment ([2]; 30 mg kg^-1 i.p., days 4 and 7 after injury): significantly greater reduction
- mNSS scores versus vehicle-treated group ([2]; multiple-dose 30 mg kg^-1 i.p. daily for 4 days, days 1-28): significantly less
- mNSS scores versus vehicle-treated group ([2]; single-dose 30 mg kg^-1 i.p., days 1-14): significantly less
